From patent publication US12509421B2, “Preparation and application of deuterated 4-phenyl-4-piperidinols” (priority 2022, dated 2025)
Structures can show the parent of a compound that is named as a salt. Where two headings read alike, the source gives them in different places.

Key:
μOR = molecular target: T1, μOR (Homo sapiens, UniProt P35372); test: Opioid receptor competitive binding test, μOR; conditions: compound at 10 μM; [3H]-labeled ligand; CHO cell membranes; ± SD of three measurements
T1 construct: expressed in transfected cells; host or cells: CHO cells
Procedure: (§1) CHO cells expressing p opioid receptor, δ opioid receptor and K opioid receptor are cultured in a 10 cm^2 Petri dish (F-12 medium+10% newborn bovine serum) for several days, and the culture solution is sucked after the cells grew to the bottom of the dish. 3 ml PBS/EDTA solution (0.1M NaCl, 0.01M NaH2PO4, 0.04% EDTA) is added for digestion for 3-5 minutes. The cells are blown with a straw to get fall off completely, collected in a 40 ml centrifuge tube, centrifuged at 5000 rpm for 5 minutes, and removed with the supernatant. The centrifuge tube is added with ice-cold homogenate (50 mM HEPES PH 7.4, 3 mM MgCl2, 1 mM EGTA). The solution and precipitate are transferred to homogenizer for homogenization; Then the homogenate is transferred into a centrifuge tube, centrifuged at 18000 rpm for 15 minutes, and centrifuged twice; the obtained precipitate is added with an appropriate amount of buffer solution of 50 mM Tris-HCl and pH 7.4, homogenized and sub-packaged in centrifuge tubes. The product is stored in a refrigerator at −70° C. for later use.
(§2) 20-30 μg expressed membrane receptor protein and [3H]-labeled ligand (1-2 nM) are added to the total binding tube, added with 1 μM of corresponding ligand to the corresponding nonspecific binding tube. Various screened opioid ligand drugs (see the drug compounds in Table 1 below) are added to the sample tube with 100 μL final volume. The sample is incubated at 30° C. for 30 minutes, and the reaction is terminated in ice water. The glass fiber filter paper gF/C (whatman) is used for negative pressure filtration on Millipore sample collector. The sample is eluted with 4 ml 50 mm tris-HCl (pH 7.4) for three times, dried with the filter paper, put in 0.5 ml Eppendorf tube and added with 0.5 ml lipophilic scintillation liquid. The radioactive intensity is measured with PERKIN ELMER PRI-CARB 2910 liquid scintillation counter with calculation of the inhibition rate. The experiment is repeated for more than three times, with three compound tubes in each group. Inhibition rate(or binding rate)=(total binding rate dpm−sample tube dpm)/(total binding tube dpm-nonspecific binding tube dpm)×100%
(§3) IC50 is calculated with Prism 5.0 software. The Ki value is calculated according to the following formula: Ki=IC50/(1^+[L]/Kd), wherein [L] is the concentration of the added labeled ligand, and Kd is the equilibrium dissociation parameter of the labeled ligand.

δOR = molecular target: T2, δOR (Homo sapiens, UniProt P41143); test: Opioid receptor competitive binding test, δOR; conditions: compound at 10 μM; [3H]-labeled ligand; CHO cell membranes; ± SD of three measurements
T2 construct: expressed in transfected cells; host or cells: CHO cells
Procedure: as §1, §2, §3

κOR = molecular target: T3, κOR (Homo sapiens, UniProt P41145); test: Opioid receptor competitive binding test, κOR; conditions: compound at 10 μM; [3H]-labeled ligand; CHO cell membranes; ± SD of three measurements
T3 construct: expressed in transfected cells; host or cells: CHO cells
Procedure: as §1, §2, §3

Female Kunming mice = test: Hot plate analgesia test in mice; format: in vivo; conditions: intraperitoneal, 55° C. hot plate; for ED50: Mus musculus, ip; for Maximum analgesic effective percentage (% MPE), hot plate: 10 mg/kg
Procedure: Female Kunming mice weighing about 20 g are placed on a hot plate instrument preheated to 55° C., and the latency of licking hind feet or lifting hind feet is used as the pain threshold index. Animals are screened before the experiment, and animals with latency less than 5 s or more than 30 s are excluded. To prevent foot burns, the longest observation time is set to 60s. The basic pain threshold is the average of two measurements, and the interval between the two measurements is 5 minutes. The pain threshold of mice in each group is determined at 15 minutes, 30 minutes, 60 minutes and 120 minutes after intraperitoneal administration. The effective percentage of analgesia (% MPE) is calculated according to the following formula
[formula] According to the effective percentage of analgesia, the ED50 value is calculated by graphpad prism 5.0 software.

hERG potassium channel = hERG potassium channel (Homo sapiens, UniProt Q12809); test: hERG potassium channel whole-cell patch clamp (HEK293); format: cell-based; design: expressed in transfected cells; host or cells: HEK293 cell line; conditions: for IC50: HEK293 cells stably expressing hERG, whole-cell patch clamp, room temperature, read-out: Half-inhibition concentration of compounds to be tested on hERG (IC50)
Text: The rapidly activated potassium channel encoded by human ether-a-go-go-related gene (hERG) is an important ion channel involved in the formation of phase 3 repolarization of myocardial action potential. […] Drug-induced delayed ventricular repolarization may cause fatal arrhythmia-torsade de pointes in some cases. According to statistics, about 25-40% of the lead compounds show different degrees of hERG-related toxicity, and many drugs are withdrawn from the market because they may lead to the risk of QT interval extension. At present, National Medical Products Administration also requires hERG/IKr safety evaluation data before clinical trial application (IND) of new drugs under study. • 1. Whole-cell patch clamp technique is used to study the inhibitory effect of compounds on hERG potassium channels: • 1) the compound to be tested is stored with physiological saline prepared into 10 mM liquid. The test stock solution is diluted with physiological saline into 3 mM, 1 mM and 0.3 mM diluents in turn. […] The old culture medium removed and is washed once with PBS, then added with 1 mL TrypLE™ Express solution and incubated at 37° C. for about 0.5 minutes. When the cells are detached from the bottom of the dish, about 5 ml complete medium preheated is added at 37° C. The cell suspension is gently blown with a straw to separate the aggregated cells. The cell suspension is transferred to a sterile centrifuge tube and centrifuged at 1000 rpm for 5 minutes to collect cells. […] The clamping voltage is depolarized from −80 mV to −50 mV for 0.5 seconds (as leakage current detection), then stepped to 30 mV for 2.5 seconds, and then quickly recovered to −50 mV for 4 seconds, which can excite the tail current of hERG channel. Data are collected repeatedly every 10s to observe the effect of drugs on hERG tail current. 0.5 seconds-50 mV stimulation is used as leakage current detection. The test data are collected by IPA amplifier (Sutter Instrument) and stored in SutterPatch software.
Capillary glass tube is drawn into recording electrode by microelectrode drawing instrument. Under the inverted microscope, the microelectrode manipulator is operated to contact the recording electrode with the cell, and negative pressure suction is given to form a GΩ seal. After the GΩ seal is formed, rapid capacitance compensation is carried out, and then negative pressure is continuously applied to break the cell membrane, forming a whole cell recording mode. Then the slow capacitance is compensated and the film capacitance and series resistance are recorded. No leakage compensation is given.
When the hERG current recorded in the whole cell is stable, the drug is administered, and the next concentration is detected after each drug concentration acts for 5 minutes (or the current is stable), and multiple concentrations are detected for each test compound. The cover glass covered with cells is placed in the recording bath in an inverted microscope, and the test compound and the external liquid containing no compound flowed through the recording bath from low concentration to high concentration by gravity perfusion method, so as to act on the cells, and liquid exchange is carried out by using a vacuum pump during recording. The current detected by each cell in the external fluid without compounds is used as its own control group.
At least two cells are used to detect each concentration independently and repeatedly twice. All electrophysiological tests are conducted at room temperature.
Firstly, the current after each drug concentration and the blank control current are standardized
[formula] followed by the calculation of the inhibition rate
[formula] corresponding to each drug concentration, the average and standard deviation for each concentration, and the semi-inhibition concentration of each compound with the following equation: […]
The dose-dependent effect is nonlinear fitted by the above equation, and IC50 is semi-inhibitory concentration.

CYP 3A4 = CYP 3A4 (Homo sapiens, UniProt P08684); conditions: read-out: CYP 3A4 IC50, human liver microsomes
CYP 1A2 = molecular target: T4, CYP 1A2 (Homo sapiens, UniProt P05177); test: Inhibition of cytochrome P450 enzyme in human liver microsomes, CYP 1A2; conditions: read-out: CYP 1A2 IC50; human liver microsomes; substrate Finacetin
T4 sequence (P05177 1-516): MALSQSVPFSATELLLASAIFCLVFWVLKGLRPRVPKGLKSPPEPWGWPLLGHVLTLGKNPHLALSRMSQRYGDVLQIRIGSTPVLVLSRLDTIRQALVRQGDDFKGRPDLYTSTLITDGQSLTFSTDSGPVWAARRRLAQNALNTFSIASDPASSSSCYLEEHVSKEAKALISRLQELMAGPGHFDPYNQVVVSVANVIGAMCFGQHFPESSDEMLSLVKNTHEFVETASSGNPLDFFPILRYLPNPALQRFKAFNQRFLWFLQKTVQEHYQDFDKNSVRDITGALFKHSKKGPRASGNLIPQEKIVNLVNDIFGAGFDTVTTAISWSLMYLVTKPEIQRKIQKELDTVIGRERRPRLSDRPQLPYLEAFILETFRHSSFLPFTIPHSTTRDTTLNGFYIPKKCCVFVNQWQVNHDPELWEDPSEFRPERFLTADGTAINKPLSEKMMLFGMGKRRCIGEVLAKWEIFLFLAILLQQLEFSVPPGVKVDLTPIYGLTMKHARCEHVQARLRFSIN

CYP 2C9 = CYP 2C9 (Homo sapiens, UniProt P11712); test: Inhibition of cytochrome P450 enzyme in human liver microsomes, CYP 2C9; conditions: read-out: CYP 2C9 IC50; human liver microsomes; substrate Diclofenac
CYP 2D6 = CYP 2D6 (Homo sapiens, UniProt P10635); test: Inhibition of cytochrome P450 enzyme in human liver microsomes, CYP 2D6; conditions: read-out: CYP 2D6 IC50; human liver microsomes; substrate Dextromethorphan
CYP 2C19 = CYP 2C19 (Homo sapiens, UniProt P33261); test: Inhibition of cytochrome P450 enzyme in human liver microsomes, CYP 2C19; conditions: read-out: CYP 2C19 IC50; human liver microsomes; substrate (S)-mephenytoin

Molecule	μOR binding rate (μOR) [%]	δOR binding rate (δOR) [%]	κOR binding rate (κOR) [%]	ED50, hot plate (Female Kunming mice) [mg/kg]	hERG inhibition grade (hERG potassium channel)	IC50 (hERG potassium channel) [µM]	IC50 (CYP 3A4; substrate midazolam) [µM]	IC50 (CYP 3A4; substrate testosterone) [µM]	IC50 (CYP 1A2) [µM]	IC50 (CYP 2C9) [µM]	IC50 (CYP 2D6) [µM]	IC50 (CYP 2C19) [µM]	ED50 (Female Kunming mice) [mg/kg]	Maximum analgesic effective percentage (% MPE), hot plate (Female Kunming mice) [%]
1-(4-hydroxy-4-(3-methoxyphenyl)-3-(((methyl-d3)amino)methyl)-1-piperidinyl)-2(2,4,5-trifluorophenyl)ethyl-1-one [I-5hydrochloride]	22.6 ± 1.7	12.5 ± 2.9	19.1 ± 1.2	0.75	μM((Weak inhibition)	13.5								
COc1cccc([C@]2(O)CCN(S(=O)(=O)Cc3ccccc3)C[C@H]2CN(C)C)c1.Cl [Example 20 of CN201911076305.X, (3R, 4S)-1-(benzylsulfonyl)-3-(dimethylamino)methyl)-4-(3-methoxyphenyl)-4-piperidinol hydrochloride, reference compound]							32.3	46.4	> 50	> 50	9.61	> 50		
[2H]C([2H])([2H])Oc1cccc(C2(O)CCN(C(=O)Cc3cc(F)c(F)cc3F)CC2CN(C([2H])([2H])[2H])C([2H])([2H])[2H])c1 (stereo not drawn) [I-7hydrochloride]	20.7 ± 2.2	9.9 ± 0.5	15.9 ± 0.7		μM((Weak inhibition)	21.6							0.89	
[2H]C([2H])([2H])Oc1cccc(C2(O)CCN(S(=O)(=O)Cc3ccccc3)CC2CN(C([2H])([2H])[2H])C([2H])([2H])[2H])c1 (stereo not drawn) [I-3hydrochloride]	22.75 ± 2.3	8.6 ± 1.2	14.9 ± 0.9		μM((Weak inhibition)	16.6							0.82	
[2H]C([2H])([2H])N(CC1CN(S(=O)(=O)Cc2ccccc2)CCC1(O)c1cccc(OC)c1)C([2H])([2H])[2H] (stereo not drawn) [I-4hydrochloride]	25.9 ± 3.9	10.1 ± 0.6	18.5 ± 3.2		μM((Weak inhibition)	11								100
[2H]C([2H])([2H])N(CC1CN(C(=O)Cc2cc(F)c(F)cc2F)CCC1(O)c1cccc(OC)c1)C([2H])([2H])[2H] (stereo not drawn) [I-8hydrochloride]	22.8 ± 2.8	8.2 ± 0.9	16.4 ± 2.6		μM((Weak inhibition)	16.8								100
